The source of these data is US20260022142A1, “MACROCYCLIC IMMUNOMODULATORS” (Bristol-Myers Squibb Company, priority 2022, published 2026).

pIC50: −log10 of the molar value. Numbered stars: 1 amine (or outer) side, 2 acyl side, 3 side chain; on linkers, the order of the positions; unused ones are H or OH. Bridge positions count the residues as written; N and C are the ends. Square brackets hold non-standard residues; d marks the D form. Peptide text beside a SMILES is read from it. * marks the point of attachment. Ala(morpholin-4-yl) = N[C@@H](CN1CCOCC1)C(=O)O; Phe(4-COOH) = N[C@@H](Cc1ccc(C(=O)O)cc1)C(=O)O; Tyr(3-Cl) = N[C@@H](Cc1ccc(O)c(Cl)c1)C(=O)O; Bip = N[C@@H](Cc1ccc(-c2ccccc2)cc1)C(=O)O; Phe(3-Me) = Cc1cccc(C[C@H](N)C(=O)O)c1; βAsp = O=C(O)[C@H](CC(=O)[*:2])N[*:1]; NH(CH2)12COOH = O=C(O)CCCCCCCCCCCCN*; Val(3-OH) = CC(C)(O)[C@H](N)C(=O)O; 3Pal = N[C@@H](Cc1cccnc1)C(=O)O; 4Pal = N[C@@H](Cc1ccncc1)C(=O)O; Cha = N[C@@H](CC1CCCCC1)C(=O)O; Cit = NC(=O)NCCC[C@H](N)C(=O)O; Carboxymethyl = O=C(O)C*; Nle = CCCC[C@H](N)C(=O)O; Orn = NCCC[C@H](N)C(=O)O; Aun = NCCCCCCCCCCC(=O)O; Dab = NCC[C@H](N)C(=O)O; Dap = NC[C@H](N)C(=O)O; AEEA = NCCOCCOCC(=O)O; Ac3c = NC1(C(=O)O)CC1

In this assay the target is T1, PD-1/PD-L1 interaction (PE-labeled human PD-L1-Ig binding to Jurkat cell line over-expressing human PD-1) (Homo sapiens, UniProt Q15116).
T1 construct: expressed in transfected cells; host or cells: Jurkat
T1 sequence (Q15116 25-288): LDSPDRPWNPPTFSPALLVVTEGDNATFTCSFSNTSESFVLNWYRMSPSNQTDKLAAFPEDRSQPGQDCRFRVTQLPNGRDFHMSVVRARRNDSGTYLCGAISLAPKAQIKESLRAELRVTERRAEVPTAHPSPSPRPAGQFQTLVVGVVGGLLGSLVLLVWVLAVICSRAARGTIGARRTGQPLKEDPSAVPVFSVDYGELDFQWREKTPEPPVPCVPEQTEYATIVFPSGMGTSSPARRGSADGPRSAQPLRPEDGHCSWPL
Nature of the assay: Jurkat-PD-1 Cell Binding High-Content Screening Assay (CBA). It is filed as cell-based. Conditions: Jurkat cell line over-expressing human PD-1; PE-labeled PD-L1-Ig 20 nM final; read-out: Jurkat hPD1-PDL1 IC50. The method in brief: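 Jurkat-hPD-1 cells, DMEM/10% FCS; cpd 2 h 37° C; PE-PD-L1-Ig 20 nM final, 1 h; 4% PFA fix + Hoechst 33342, 3× dPBS wash; high-content imaging read-out.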
With `CCCC[C@@H]1NC(=O)CSC[C@@H](C(=O)N[C@@H](CCN)C(=O)NCCOCCOCC(=O)NCCOCCOCC(=O)NCCCCCCCCCCCCC(=O)O)NC(=O)[C@H](CCC(=O)O)NC(=O)[C@H](C(C)C)NC(=O)[C@H](CC2CCCCC2)NC(=O)[C@H](CCN)NC(=O)[C@@H](CC(C)C)NC(=O)[C@H](CCCN)NC(=O)[C@H](Cc2ccc(C(=O)O)cc2)NC(=O)[C@H](Cc2ccc(-c3ccccc3)cc2)NC(=O)[C@H](Cc2ccc(C(=O)O)cc2)NC(=O)[C@H](Cc2cccc(C)c2)NC(=O)[C@H](CC(=O)O)NC(=O)[C@H](Cc2ccc(OCC(=O)O)cc2)NC1=O` [Compound 3809] ({CH2CO}-[Nle]Y(Carboxymethyl)D[Phe(3-Me)][Phe(4-COOH)][Bip][Phe(4-COOH)][Orn][dL][Dab][Cha]VEC[Dab][AEEA][AEEA]-{NH(CH2)12COOH}; thioether N-14), the pIC50 is 7.81. The value for `CC[C@H](C)[C@@H]1NC(=O)[C@H](Cc2ccc(-c3ccccc3)cc2)NC(=O)[C@H](C(C)C)NC(=O)[C@H](Cc2cccc(C)c2)NC(=O)[C@H](CC(=O)O)NC(=O)[C@H](Cc2ccc(C(=O)O)cc2)NC(=O)[C@H](Cc2ccncc2)NC(=O)CSC[C@@H](C(=O)NCCOCCOCC(=O)N[C@@H](CN)C(=O)NCCCCCCCCCCC(=O)O)NC(=O)[C@H]([C@@H](C)O)NC(=O)[C@H](C(C)C)NC(=O)[C@H](CC2CCCCC2)NC(=O)[C@H](CCN)NC(=O)[C@@H](CC(C)C)NC(=O)[C@H](CCCN)NC1=O` [Compound 1188] ({CH2CO}-[4Pal][Phe(4-COOH)]D[Phe(3-Me)]V[Bip]I[Orn][dL][Dab][Cha]VTC[AEEA][Dap][Aun]-OH; thioether N-14) was 6.83.

With `Cc1cccc(C[C@@H]2NC(=O)[C@H](CC(=O)O)NC(=O)[C@H](Cc3ccc(OCC(=O)O)cc3)NC(=O)[C@H](CN)NC(=O)CSC[C@@H](C(=O)N[C@@H](C)C(=O)N[C@@H](CC(=O)NCCCCCCCCCCC(=O)O)C(=O)O)NC(=O)[C@H]([C@@H](C)O)NC(=O)[C@H](C(C)C)NC(=O)[C@H](CC3CCCCC3)NC(=O)[C@H](CCN)NC(=O)[C@@H](CC(C)C)NC(=O)[C@H](CCCN)NC(=O)[C@H](CCCNC(N)=O)NC(=O)[C@H](Cc3ccc(-c4ccccc4)cc3)NC(=O)[C@H](C(C)C)NC2=O)c1` [Compound 1023] ({CH2CO}-[Dap]Y(Carboxymethyl)D[Phe(3-Me)]V[Bip][Cit][Orn][dL][Dab][Cha]VTCA[βAsp][Aun]-OH; thioether N-14), the pIC50 was 8.10.

On to `Cc1cccc(C[C@@H]2NC(=O)[C@H](CC(=O)O)NC(=O)[C@H](Cc3ccc(OCC(=O)O)cc3)NC(=O)[C@H](CN3CCOCC3)NC(=O)CSC[C@@H](C(=O)N[C@@H](CCN)C(=O)NCCOCCOCC(=O)NCCOCCOCC(=O)NCCCCCCCCCCCCC(=O)O)NC(=O)[C@H](CCC(=O)O)NC(=O)[C@H](C(C)(C)O)NC(=O)[C@H](CC3CCCCC3)NC(=O)[C@H](CCN)NC(=O)[C@@H](CC(C)C)NC(=O)[C@H](CCCN)NC(=O)[C@H](Cc3ccc(C(=O)O)cc3)NC(=O)[C@H](Cc3ccc(-c4ccccc4)cc3)NC(=O)[C@H](Cc3ccc(C(=O)O)cc3)NC2=O)c1` [Compound 2898] ({CH2CO}-[Ala(morpholin-4-yl)]Y(Carboxymethyl)D[Phe(3-Me)][Phe(4-COOH)][Bip][Phe(4-COOH)][Orn][dL][Dab][Cha][Val(3-OH)]EC[Dab][AEEA][AEEA]-{NH(CH2)12COOH}; thioether N-14), for which the pIC50 is 8.26.

With `Cc1cccc(C[C@@H]2NC(=O)[C@H](CC(=O)O)NC(=O)[C@H](Cc3ccc(OCC(=O)O)cc3)NC(=O)[C@H](CN)NC(=O)CSC[C@@H](C(=O)N[C@@H](CCN)C(=O)NCCOCCOCC(=O)NCCCCCCCCCCC(=O)O)NC(=O)[C@H](CCCN)NC(=O)[C@H](C(C)C)NC(=O)[C@H](CC3CCCCC3)NC(=O)[C@H](CCN)NC(=O)[C@@H](CC(C)C)NC(=O)[C@H](CCCN)NC(=O)[C@H](Cc3ccc(O)c(Cl)c3)NC(=O)[C@H](Cc3ccc(-c4ccccc4)cc3)NC(=O)[C@H](Cc3ccc(O)cc3)NC2=O)c1` [Compound 2057] ({CH2CO}-[Dap]Y(Carboxymethyl)D[Phe(3-Me)]Y[Bip][Tyr(3-Cl)][Orn][dL][Dab][Cha]V[Orn]C[Dab][AEEA][Aun]-OH; thioether N-14), the pIC50 was 8.10. Regarding `Cc1cccc(C[C@@H]2NC(=O)[C@H](CC(=O)O)NC(=O)[C@H](Cc3ccc(OCC(=O)O)cc3)NC(=O)[C@H](CN)NC(=O)CSC[C@@H](C(=O)N[C@@H](CCN)C(=O)NCCCCCCCCCCC(=O)O)NC(=O)[C@H](CCCN)NC(=O)[C@H](C(C)C)NC(=O)[C@H](CC3CCCCC3)NC(=O)[C@H](CCN)NC(=O)[C@@H](CC(C)C)NC(=O)[C@H](CCCN)NC(=O)[C@H](Cc3ccc(O)cc3)NC(=O)[C@H](Cc3ccc(-c4ccccc4)cc3)NC(=O)[C@H](C(C)C)NC2=O)c1` [Compound 2841] ({CH2CO}-[Dap]Y(Carboxymethyl)D[Phe(3-Me)]V[Bip]Y[Orn][dL][Dab][Cha]V[Orn]C[Dab][Aun]-OH; thioether N-14), the pIC50 is 7.91. The value for `Cc1cccc(C[C@@H]2NC(=O)[C@H](CC(=O)O)NC(=O)[C@H](Cc3ccc(OCC(=O)O)cc3)NC(=O)[C@H](CN)NC(=O)CSC[C@@H](C(=O)N[C@@H](CCN)C(=O)NCCCCCCCCCCC(=O)O)NC(=O)[C@H]([C@@H](C)O)NC(=O)[C@H](C(C)C)NC(=O)[C@H](CC3CCCCC3)NC(=O)[C@H](CCN)NC(=O)[C@@H](CC(C)C)NC(=O)[C@H](CCN)NC(=O)[C@H](Cc3ccc(OCC(=O)O)cc3)NC(=O)[C@H](Cc3ccc(-c4ccccc4)cc3)NC(=O)[C@H](Cc3ccc(O)cc3)NC2=O)c1` [Compound 2087] ({CH2CO}-[Dap]Y(Carboxymethyl)D[Phe(3-Me)]Y[Bip]Y(Carboxymethyl)[Dab][dL][Dab][Cha]VTC[Dab][Aun]-OH; thioether N-14) was 7.82; that for `Cc1cccc(C[C@@H]2NC(=O)[C@H](CC(=O)O)NC(=O)[C@H](Cc3ccc(OCC(=O)O)cc3)NC(=O)[C@H](CCCNC(=N)N)NC(=O)CSC[C@@H](C(=O)NC3(C(=O)NCCCCCCCCCCC(=O)O)CC3)NC(=O)[C@H](CCC(N)=O)NC(=O)[C@H](C(C)C)NC(=O)[C@H](CC3CCCCC3)NC(=O)[C@H](CCN)NC(=O)[C@@H](CC(C)C)NC(=O)[C@H](CCCN)NC(=O)[C@H](Cc3ccc(OCC(=O)O)cc3)NC(=O)[C@H](Cc3ccc(-c4ccccc4)cc3)NC(=O)[C@H](Cc3ccc(OCC(=O)O)cc3)NC2=O)c1` [Compound 2137] ({CH2CO}-RY(Carboxymethyl)D[Phe(3-Me)]Y(Carboxymethyl)[Bip]Y(Carboxymethyl)[Orn][dL][Dab][Cha]VQC[Ac3c][Aun]-OH; thioether N-14) was 8.04; that for `Cc1cccc(C[C@@H]2NC(=O)[C@H](CC(=O)O)NC(=O)[C@H](Cc3ccc(OCC(=O)O)cc3)NC(=O)[C@H](Cc3cccnc3)NC(=O)CSC[C@@H](C(=O)N[C@@H](CCN)C(=O)NCCCCCCCCCCC(=O)O)NC(=O)[C@H]([C@@H](C)O)NC(=O)[C@H](C(C)C)NC(=O)[C@H](CC3CCCCC3)NC(=O)[C@H](CCN)NC(=O)[C@@H](CC(C)C)NC(=O)[C@H](CCCN)NC(=O)[C@H](CCCNC(N)=O)NC(=O)[C@H](Cc3ccc(-c4ccccc4)cc3)NC(=O)[C@H](C(C)C)NC2=O)c1` [Compound 2832] ({CH2CO}-[3Pal]Y(Carboxymethyl)D[Phe(3-Me)]V[Bip][Cit][Orn][dL][Dab][Cha]VTC[Dab][Aun]-OH; thioether N-14) was 7.32.
